In patent US20060217400A1, “Triazolopyrimidines, methods for the production thereof, use thereof for controlling harmful fungi, and substances containing said triazolopyrimidines” (priority 2002, published 2006):

System: Alternaria solani
Assay: Activity against early blight of tomato caused by Alternaria solani
Format: in vivo
Conditions: 250 ppm, spray on tomato leaves, rated after 5 days; untreated control 80% infected
Description: The active compounds were formulated separately as a stock solution comprising 0.25% by weight of active compound in acetone or DMSO. 1% by weight of the emulsifier Uniperol® EL (wetting agent having emulsifying and dispersing action based on ethoxylated alkylphenols) was added to this solution. The stock solutions of the active compounds were diluted with water to the stated concentration. Leaves of potted plants of the cultivar “Golden Princess” were sprayed to runoff point with an aqueous suspension having the concentration of active compound stated below. The next day, the leaves were infected with an aqueous spore suspension of Alternaria solani in 2% biomalt solution having a density of 0.17×10^6 spore/ml. The plants were then placed in a water-vapor saturated chamber at temperatures between 20 and 22° C. After 5 days, the blight on the untreated, but infected control plants had developed to such an extent that the infection could be determined visually in %.

SMILES: CCC(C)Cc1c(-c2c(F)cc(F)cc2F)c(C)nc2nc(OC)nn12 (stereo not shown) [I-11, 2-Methoxy-5-methyl-6-(2,4,6-trifluorophenyl)-7-(2-methylbutyl)-1,2,4-triazolo[1,5a]pyrimidine]
- infection of the leaves, determined visually: < 10%
